Consider 15 compounds from PubChem BioAssay (NCI).

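Growth conditions: 96-well plates. Treatment: test compound, 48 hours, 5 concentrations. Analysis: linear interpolation between bracketing concentrations; unreached endpoints set to highest concentration. GI50 marks 50% less growth. TGI denotes the concentration required for complete inhibition of growth.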

Experiment in all cases: NCI anticancer screen, dose series, 48 h
For experiment [1], the system named is ACHN renal.
In experiment [2] the test system is HCT-15 colon.
Experiment [3] relates to HT29 colon.
Experiment [4] concerns KM12 colon.
Experiment [5] has as its system MALME-3M melanoma.
Experiment [6] deals with MOLT-4 leukemia.
For experiment [7], the system named is SN12C renal.
Experiment [8] deals with UACC-62 melanoma.

For the compound `COc1ccc(-c2c(N)[n+]([O-])c3ccccc3[n+]2[O-])cc1OC`, the TGI in experiment [1], in experiment [2], in experiment [3], in experiment [4], in experiment [5] and in experiment [6] was greater than 100 µM each time. The TGI in experiment [7] is greater than 100 µM.

In the case of `CC1C(=O)O[C@H]2C1CC[C@@]1(C)[C@H](O)CC[C@@]13C[C@]2(O)OO3` (some centres not stated), the TGI in experiment [1], in experiment [2], in experiment [3], in experiment [5], in experiment [6] and in experiment [7] was greater than 100 µM in each case. Besides, in experiment [8], the TGI was greater than 100 µM.

With `CCC(C(=O)c1ccccc1)C(CCCC(=O)Nc1c(C)cccc1C)N=O` (configuration not stated), the TGI in experiment [1], in experiment [2], in experiment [3], in experiment [4], in experiment [5] and in experiment [6] was greater than 100 µM each time. In addition, the TGI in experiment [7] and in experiment [8] was greater than 100 µM throughout.

With `O=C(NCc1ccncc1)C1COc2cc(-c3cc(=O)c4ccccc4o3)ccc2O1` (configuration not stated), the TGI in experiment [1], in experiment [2], in experiment [3], in experiment [4], in experiment [5] and in experiment [6] was greater than 100 µM throughout. The TGI in experiment [7] and in experiment [8] was greater than 100 µM in each case.

With `N#CC1C2CCC3(CC2CCN1C(=O)c1ccccc1)OCCO3` (configuration not stated), the TGI in experiment [1], in experiment [2], in experiment [3], in experiment [4], in experiment [5] and in experiment [6] was greater than 100 µM each time. Besides, the TGI in experiment [7] and in experiment [8] was greater than 100 µM each time.

With `C1=Nc2ccccc2C=Nc2ccccc2C=Nc2ccccc2C=Nc2ccccc21.[Cl-].[Pt+2]`, the GI50 in experiment [1] was 19 µM; in experiment [2], 22.3 µM; in experiment [3], 22.3 µM; in experiment [6], 14.1 µM; in experiment [7], 28.4 µM; in experiment [8], 21.1 µM. Moreover, the TGI was 49 µM in experiment [1]; 83.1 µM in experiment [2]; 52.5 µM in experiment [3]; 49.3 µM in experiment [6]; greater than 100 µM in experiment [7]; 87.8 µM in experiment [8].

For `O=c1c2cccnc2ncn1CCN1CCCC1`, the TGI in experiment [1], in experiment [3], in experiment [4], in experiment [5], in experiment [6] and in experiment [7] was greater than 100 µM throughout. In experiment [8], this compound gave a TGI greater than 100 µM.

For `N#Cc1ccc2c(c1)C(=O)c1c-2n(CCCN)c(=O)c2cc([N+](=O)[O-])ccc12`, the GI50 in experiment [1] was 0.0699 µM; in experiment [2] it was 0.411 µM; in experiment [3], 0.0718 µM; in experiment [4], 1.2 µM; in experiment [6], 0.0492 µM; in experiment [7] it was 0.261 µM. Moreover, in experiment [8], the GI50 is 0.109 µM. Besides, the TGI in experiment [1] turned out to be 1.18 µM; in experiment [2], 1.83 µM; in experiment [3], 0.562 µM; in experiment [4], 3.89 µM; in experiment [7], 1.82 µM; in experiment [8], 1.39 µM.

With `Cc1ccc(Oc2ccc([N+](=O)[O-])cc2[N+](=O)[O-])c(C)c1`, the TGI in experiment [1] is greater than 100 µM; in experiment [2], greater than 100 µM; in experiment [3] it was 59.3 µM; in experiment [5], greater than 100 µM; in experiment [6], 79.4 µM; in experiment [7], greater than 100 µM. The TGI in experiment [8] was greater than 100 µM.

With `CC1(O)CCC2(C#N)CCC1C2O` (configuration not stated), the TGI in experiment [1], in experiment [2], in experiment [3], in experiment [4], in experiment [5] and in experiment [6] was greater than 100 µM each time. Moreover, the TGI in experiment [7] and in experiment [8] was greater than 100 µM throughout.

Take `Cc1cc2cn3c4cccnc4[nH]c(=O)c3c2cc1C`: the GI50 in experiment [1] is 1.73 µM; in experiment [2] it was 1.41 µM; in experiment [4], 1.15 µM; in experiment [6], 2.25 µM; in experiment [8], 1.38 µM. The TGI in experiment [1] came out at 3.1 µM; in experiment [2] it was 2.87 µM; in experiment [4], 2.56 µM; in experiment [6] it was 4.53 µM; in experiment [8], 2.78 µM.

For the compound `N#C/C(=C\c1ccc(C(O)P(=O)(O)O)cc1)C(N)=O` (configuration not stated), the TGI in experiment [1], in experiment [2], in experiment [3], in experiment [4], in experiment [5] and in experiment [6] was greater than 100 µM in each case. Besides, the TGI in experiment [7] and in experiment [8] was greater than 100 µM in each case.

Take `CC/C=C/c1cc2cc[nH]c2c2c1C(C)C[C@@H]2C` (some centres not stated): the TGI in experiment [1] was greater than 100 µM; in experiment [2] it was 82.5 µM; in experiment [3] it was 82.2 µM; in experiment [4], 40.8 µM; in experiment [5] it was greater than 100 µM; in experiment [6] it was 53.3 µM. Further, the TGI in experiment [7] was determined as 35 µM; in experiment [8], 41.8 µM.

Consider `CCOP(=O)(OCC)C1=NC=CC=CC1n1c(-c2ccccc2)nn(CC)c1=O` (configuration not stated), for which the TGI in experiment [1], in experiment [2], in experiment [3], in experiment [4], in experiment [5] and in experiment [6] was greater than 100 µM throughout. Moreover, the TGI in experiment [7] and in experiment [8] was greater than 100 µM throughout.

Take `COc1cc2c(c(OC)c1OC)-c1ccc(OC)c(=O)cc1[C@@H](N(C)C=O)CC2`: the TGI is greater than 100 µM in experiment [1]; greater than 100 µM in experiment [2]; greater than 100 µM in experiment [3]; 0.747 µM in experiment [4]; greater than 100 µM in experiment [5]; greater than 100 µM in experiment [6]. Further, the TGI in experiment [7] and in experiment [8] was greater than 100 µM each time.
